Test results: EP3359195B1 (AB Science, priority 2015, dated 2017)
Read-outs that look alike come from different tables or passages of the source.

What was measured:
mastocytosis = conditions: cited from earlier work; for major response: more than 50% improvement in symptoms and signs; for overall response rate: sum of CR, MR and PR
[1] = tested on: Ba/F3 cells expressing the D816V c-Kit mutation; conditions: read-out: IC50, proliferation; cited from earlier work
[2] = tested on: Ba/F3 cells expressing human or mouse wild-type c-Kit; conditions: read-out: IC50, stem cell factor-induced proliferation and c-Kit tyrosine phosphorylation; cited from earlier work
[3] = tested on: severe systemic mastocytosis; assay: post-hoc analysis of pooled phase 2 studies AB06013 and AB04010, cohort simulating severe systemic mastocytosis; type: in vivo, human; conditions: for Cumulative response rate (≥75 %) from W8 to W24, Hamilton or FIS / Cumulative response rate (≥75 %) from W8 to W24, Flushes or Pruritus: 2-handicap response rate; for Cumulative response rate (≥75 %) from W8 to W24, Hamilton or FIS: at least one handicap from [Hamilton or FIS]; for Cumulative response rate (≥75 %) from W8 to W24, Flushes or Pruritus: at least one handicap from [flushes or pruritus]
[4] = entire evaluable study population (N=80)
[5] = missing data considered as failure (observed cases after W12)

## Nc1nc(Cl)nc2c1ncn2[C@H]1C[C@H](O)[C@@H](CO)O1 [Cladribine]
mastocytosis; [4]
  major response: 37%
  overall response rate: 55%
mastocytosis; patients with ISM (N=22)
  overall response rate: 56%

## NC(=O)NO [hydroxyurea]
mastocytosis; [4]
  major response: 0%
  overall response rate: 19%
mastocytosis; patients with ISM (N=22)
  overall response rate: 0%

## Cc1ccc(NC(=O)c2ccc(CN3CCN(C)CC3)cc2)cc1Nc1nccc(-c2cccnc2)n1 [imatinib mesilate]
mastocytosis; [4]
  major response: 9%
  overall response rate: 18%
mastocytosis; patients with ISM (N=22)
  overall response rate: 14%

## Cc1ccc(NC(=O)c2ccc(CN3CCN(C)CC3)cc2)cc1Nc1nc(-c2cccnc2)cs1 [masitinib, 4-(4-methylpiperazin-1-ylmethyl)-N-[4-methyl-3-(4-pyridin-3ylthiazol-2-ylamino)phenyl]benzamide]
[1]
  IC50: 5 ± 2 µM
[2]
  IC50: 0.15 ± 0.08 µM
[3]
  Cumulative response rate (≥75 %) from W8 to W24, Hamilton or FIS: ~10%
  Cumulative response rate (≥75 %) from W8 to W24, Flushes or Pruritus: approximately 40%
[3]; listed as Masitinib
  Cumulative response rate (≥75 %) from W8 to W24, Hamilton or FIS: 10.3%
  Cumulative response rate (≥75 %) from W8 to W24, Flushes or Pruritus: 38.8%
[3]; Week 12, at least one severe handicap among pruritus, flushes, fatigue or depression at baseline, missing data considered as failure, listed as Masitinib
  Overall response ≥ 75%: 25.0%
[3]; Week 12, patients with both pruritus score ≥9 and flushes per week ≥8 at baseline (4 patients, 8 handicaps)
  Overall response ≥ 75%: 1/8 (12.5%)
[3]; Week 24, at least one severe handicap among pruritus, flushes, fatigue or depression at baseline, missing data considered as failure
  Overall response ≥ 75%: 23.5%
[3]; Week 24, at least one severe handicap among pruritus, flushes, fatigue or depression at baseline, missing data considered as failure, listed as Masitinib
  Overall response ≥ 75%: 23.5%
[3]; Week 24, patients with both pruritus score ≥9 and flushes per week ≥8 at baseline (4 patients, 8 handicaps)
  Overall response ≥ 75%: 50%
[3]; at least one handicap among pruritus, flushes, fatigue or depression, W8, W12, W24
  Cumulative response rate (≥75 %) from W8 to W24, Overall Response: 26.1%
[3]; [5]
  Cumulative response rate (≥75 %) from W8 to W24, FIS only: 8.0%
  Cumulative response rate (≥75 %) from W8 to W24, Flushes only: 52.8%
  Cumulative response rate (≥75 %) from W8 to W24, Hamilton only: 16.7%
  Cumulative response rate (≥75 %) from W8 to W24, Micturition frequency (pollakiuria) only: 1.8%
  Cumulative response rate (≥75 %) from W8 to W24, Pruritus only: 28.6%
  Cumulative response rate (≥75 %) from W8 to W24, Stool frequency (diarrhea) only: 18.4%
